Laboratory results as given in patent US10597388B2, “Pyridazinone herbicides” (FMC CORPORATION, priority 2014, dated 2020).

What was measured:
Assay in all cases: Test C greenhouse herbicide test, pre- and postemergence
Format in all cases: in vivo
[1] = system: galium (catchweed bedstraw, Galium aparine)
Summary of the method: (§1)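 Percent-control ratings (0 none, 100 complete) came from visual comparison with controls held alongside in the greenhouse for 13–15 d. Treatments covered soil application at sowing and foliar application to young plants 2–18 cm tall.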

[2] = system: corn (Zea mays)
Summary of the method: as §1

[3] = system: nutsedge, yellow (yellow nutsedge, Cyperus esculentus)
Summary of the method: as §1

[4] = system: ryegrass, Italian (Italian ryegrass, Lolium multiflorum)
Summary of the method: as §1

[5] = system: barnyardgrass (Echinochloa crus-galli)
Summary of the method: as §1

[6] = system: johnsongrass (Sorghum halepense)
Summary of the method: as §1

[7] = system: blackgrass (Alopecurus myosuroides)
Summary of the method: as §1

[8] = system: oilseed rape (Brassica napus)
Summary of the method: as §1

[9] = system: ragweed (common ragweed, Ambrosia elatior)
Summary of the method: as §1

[10] = system: crabgrass, large (large crabgrass, Digitaria sanguinalis)
Summary of the method: as §1

[11] = system: morningglory (Ipomoea coccinea)
Summary of the method: as §1

[12] = system: pigweed (Amaranthus retroflexus)
Summary of the method: as §1

[13] = system: velvetleaf (Abutilon theophrasti)
Summary of the method: as §1

[14] = system: foxtail, giant (giant foxtail, Setaria faberii)
Summary of the method: as §1

[15] = system: waterhemp (common waterhemp, Amaranthus rudis)
Summary of the method: as §1

[16] = system: lambsquarters (Chenopodium album)
Summary of the method: as §1

[17] = Postemergence, 31 g ai/ha, scale 0 to 100 (0 no effect, 100 complete control)
[18] = Postemergence, 62 g ai/ha, 0 to 100 scale (0 no effect, 100 complete control)
[19] = Postemergence, 250 g ai/ha, scale 0 to 100, 0 is no effect, 100 is complete control
[20] = postemergence, 125 g ai/ha, scale 0 to 100, 0 no effect, 100 complete control

CC(=O)Oc1c(C)nn(C)c(=O)c1-c1c([N+](=O)[O-])ccc2ccccc12 [Compound 164]
70: Plant response rating, Ragweed [9, 17] | Plant response rating, Pigweed [12, 17] | Plant response rating, Velvetleaf [13, 19] | Waterhemp plant response rating [15, 18] | Waterhemp plant response rating [15, 20] | Plant response rating, Lambsquarters [16, 17]
80: Ryegrass, Italian plant response rating [4, 20] | Ragweed plant response rating [9, 18] | Plant response rating, Morningglory [11, 17] | Pigweed plant response rating [12, 18]
35: Plant response rating, Barnyardgrass [5, 19]
85: Plant response rating, Ryegrass, Italian [4, 19] | Ragweed plant response rating [9, 20] | Morningglory plant response rating [11, 18] | Plant response rating, Pigweed [12, 19] | Pigweed plant response rating [12, 20] | Lambsquarters plant response rating [16, 18] | Lambsquarters plant response rating [16, 20]
30: Barnyardgrass plant response rating [5, 20] | Plant response rating, Foxtail, Giant [14, 19]
60: Ryegrass, Italian plant response rating [4, 18] | Velvetleaf plant response rating [13, 18] | Plant response rating, Waterhemp [15, 17]
100: Plant response rating, Galium [1, 19] | Galium plant response rating [1, 20]
25: Nutsedge, Yellow plant response rating [3, 20] | Barnyardgrass plant response rating [5, 18] | Plant response rating, Velvetleaf [13, 17] | Velvetleaf plant response rating [13, 20]
98: Plant response rating, Lambsquarters [16, 19]
0: Plant response rating, Corn [2, 17] | Corn plant response rating [2, 18] | Plant response rating, Oilseed Rape [8, 17] | Oilseed Rape plant response rating [8, 18] | Plant response rating, Oilseed Rape [8, 19] | Oilseed Rape plant response rating [8, 20] | Plant response rating, Crabgrass, Large [10, 17]
5: Plant response rating, Corn [2, 19] | Corn plant response rating [2, 20] | Plant response rating, Johnsongrass [6, 17] | Johnsongrass plant response rating [6, 18] | Johnsongrass plant response rating [6, 20] | Plant response rating, Blackgrass [7, 17] | Crabgrass, Large plant response rating [10, 18] | Plant response rating, Foxtail, Giant [14, 17]
10: Plant response rating, Barnyardgrass [5, 17] | Plant response rating, Johnsongrass [6, 19] | Plant response rating, Crabgrass, Large [10, 19] | Crabgrass, Large plant response rating [10, 20] | Foxtail, Giant plant response rating [14, 18]
90: Plant response rating, Galium [1, 17] | Plant response rating, Ragweed [9, 19] | Plant response rating, Morningglory [11, 19] | Morningglory plant response rating [11, 20]
15: Blackgrass plant response rating [7, 18] | Foxtail, Giant plant response rating [14, 20]
50: Plant response rating, Ryegrass, Italian [4, 17]
75: Plant response rating, Waterhemp [15, 19]
45: Plant response rating, Blackgrass [7, 19]
40: Plant response rating, Nutsedge, Yellow [3, 19] | Blackgrass plant response rating [7, 20]
20: Plant response rating, Nutsedge, Yellow [3, 17] | Nutsedge, Yellow plant response rating [3, 18]
95: Galium plant response rating [1, 18]
